Test results: patent US7427488B2, “Purified and isolated platelet calcium channel nucleic acids and polypeptides and therapeutic and screening methods using same” (The University of North Carolina at Chapel Hill, priority 2000, dated 2008)

Columns and labels:
Type in all cases: cell-based, human
gel-filtered platelets = assay: Platelet aggregation (Chrono-log aggregometer); settings: 50 nM nitrendipine or 5 μM Bay K(+); various concentrations of thrombin
Experimental: (§1) Human blood was collected in acid-citrate-dextrose (ACD, 85 mM trisodium citrate, 70 mM citric acid, 111 mM dextrose). Platelet rich plasma (PRP) was prepared by centrifugation of anticoagulated blood at 25° C. for 8 minutes at 200×g. Platelets were separated from plasma via gel filtration by applying the PRP to a 2.7×10 cm SEPHAROSE™ CL4B column (Amersham Biosciences Corp., Piscataway, N.J., United States of America) equilibrated with modified Tyrode's buffer (145 mM NaCl, 4 mM KCl, 1 mM MgSO4, 6 mM glucose, 10 mM Na-HEPES). Gel filtered platelets were collected and adjusted to a concentration of about 200×10^6 platelets/ml.
Gel-filtered platelets at about 200×10^6/ml were incubated for 2 hours with 1:200 MA3-920, 50 nM nitrendipine, 5 μM Bay K(−), or 5 μM Bay K(+). […] Results were analyzed with the AGGROLINK® software (Chrono-log Corp.).

[1] = test system: platelet VDCC (thrombin-activated platelets); assay: Flow cytometric analysis of [Ca2+]i in thrombin-activated platelets; settings: for effect on [Ca2+]i (in words): thrombin-activated platelets
Experimental: The conduction of calcium by the VDCC is measured in vitro by measuring changes in cytoplasmic free (ionized) calcium concentrations. Cytoplasmic calcium concentrations are measured by performing flow cytometric analysis with the calcium indicators fluo-3 and fura red as detailed by Novak & Rabinovitch, 1994. Briefly, platelets in whole blood, platelet rich plasma or biological buffers are incubated with esters of fluo-3 and fura red, and then aspirated into the flow cytometric instrument for measurement of calcium-dependent fluorescent changes. Cytoplasmic calcium concentrations are calculated from the ratio or fluo-3 and fura red relative fluorescence intensities. Experiments are performed with increasing doses of VDCC inhibitors with platelets that are in the resting state and subjected to different concentrations of activation agonists and VDCC antagonists and agonists.
as §1
PRP (prepared as above) was incubated with 5 μM Fura 2-AM and 5 μM Fluo 3-AM for 20 minutes at 37° C. […] Thrombin was then added to a final concentration of 0.0167, 0.05, 0.167 or 0.5 units/ml and mean cell fluorescence (MCF) of Fura 2 and Fluo 3 was measured at 1 minute on a FACSCAN™ (BD Biosciences, San Jose, Calif., United States of America) flow cytometer as per Novak & Rabinovitch, 1994. The ratio of fluo 3 to fura 2 MCF was calculated and compared to controls for each experimental condition.

[2] = test system: platelet surface activation markers; assay: Cell surface markers of platelet activation, overall statement; settings: Annexin V, PAC1, CD62
Experimental: as §1
(§2) Platelets were stained for cell surface activation markers according to “Flow Cytometric Analysis of Platelets”. Monoclonal Antibodies Source Book. Vol. Section 2.19 (Becton, Dickinson And Co., Franklin Lakes, N.J., United States of America). Briefly, after treatment with agonists or antagonists as above, cells were activated with 0.167 units/ml thrombin (concentration chosen based on [Ca^2+ ]i studies) for 1 minute in the presence of 1 μM CaCl2, and then stained with the combination of CD61 PerCP and Annexin V FITC, or PAC-1 FITC, CD61 PerCP, and CD62 PE for 15 minutes at room temperature in the dark. […] Cells were analyzed on a FACSCAN™ flow cytometer. Mean cell fluorescence (MCF) was compared to control platelets (thrombin only) for each experimental condition. […]

[3] = test system: CD62 (PADGEM; P-selectin) on platelet surface; assay: Cell surface markers of platelet activation by flow cytometry: CD62; settings: thrombin-activated platelets
Experimental: as §1, §2

[4] = test system: Annexin-V (phosphatidylserine) on platelet surface; assay: Cell surface markers of platelet activation by flow cytometry: Annexin V binding; settings: thrombin-activated platelets
Experimental: as §1, §2

[5] = test system: PAC1 (activated GPIIb/IIIa) on platelet surface; assay: Cell surface markers of platelet activation by flow cytometry: PAC1; settings: thrombin-activated platelets
Experimental: as §1, §2

Compound: COC(=O)C1=C(C)NC(C)=C([N+](=O)[O-])[C@@H]1c1ccccc1C(F)(F)F [Bay K (+)]
- effect on (the rate of) platelet aggregation (in words) (gel-filtered platelets): no significant effect
- effect on [Ca2+]i (in words) [1]: no significant effect
- effect on platelet surface activation markers (in words) [2]: no significant effect

Compound: COC(=O)C1=C(C)NC(C)=C([N+](=O)[O-])[C@H]1c1ccccc1C(F)(F)F [Bay K (−)]
- decrease in CD62 [3]: 4%
- [Ca2+]i ([1]; 5 μM, at one minute, thrombin 0.0167 to 0.5 units/ml (FIG. 8)): increase
- effect on [Ca2+]i (in words) [1]: trend towards increased
- increase in annexin V binding [4]: 56%
- decrease in PAC1 [5]: 9%

Compound: CCOC(=O)C1=C(C)NC(C)=C(C(=O)OC)C1c1cccc([N+](=O)[O-])c1 (stereo not shown) [Nitrendipine, nitrendipine]
- effect on (the rate of) platelet aggregation (in words) (gel-filtered platelets): no effect
- reduction (decrease) in annexin V binding / PS exposure [4]: 22%
